# Laboratory results reported in US20220142983A1, “METHODS OF TREATING CANCER WITH FARNESYLTRANSFERASE INHIBITORS” (Kura Oncology, Inc., priority 2019, published 2022).
# Legend:
# Assay type in all cases: in vivo, human
# [1] = system: relapsed and refractory AML patients; test: Tipifarnib clinical study in relapsed and refractory AML patients
# Experimental: (§1) Clinical studies with tipifarnib were performed in newly diagnosed elderly patients with poor risk AML or relapsed and refractory AML. In these studies, patient selection was not based on genetic markers. Anecdotal evidence of tipifarnib single agent activity was reported.
# [2] = system: newly diagnosed elderly patients with poor risk AML; test: Tipifarnib clinical study in newly diagnosed elderly patients with poor risk AML; settings: for PFS: N=34
# Experimental: as §1
# Patient subset—available AML marrow samples with NRAS WT or unknown, N=27 (NCBI GEO, GSE8970).
# Since achievement of CR is the main driver of clinical benefit in AML, additional screenings were conducted to differentiate the CR responses vs HI/SD responses in the higher RHOE expression levels subset of FIG. 3A (replicated in FIG. 4A).
# Another screening conducted to differentiate the CR responses and HI/SD responses from PD responses was based on both RHOE expression levels and RHOA expression levels of the subjects shown in FIG. 3A (replicated in FIG. 5). RHOA mRNA expression data was generated by RNASeq and expressed as RNA Seq V2 RSEM.
# The mRNA expression profiling data from the clinical study with newly diagnosed elderly patients with poor risk AML were also analyzed for CXCR3, CXCL12, and RHOE. Patient subset—available AML marrow samples with NRAS WT, unknown, N-12, N12/N13, or N61 (1,2); N=34. […] Probe 207681 used for CXCR3 in the GPL96 Affimetrix microarray. The combination of the CXCR3 expression levels and CXC12 expression levels of newly-diagnosed elderly, frail AML patients, also correlated with treatment response. In particular, the product (multiplication) of the CXCR3 (“receptor”) expression levels and the CXCL12 (“ligand”) expression levels further differentiated the CR and HI/SD responses from the PD responses in the AML patients treated with tipifarnib. […] PFS in the high CXCL12×CXCR3 product subset was 433 days vs. 64 days in the low expressing product subset (HR=0.24, p=0.005, N=34).
# [3] = system: relapsed/refractory CMML patients; test: Tipifarnib clinical study in relapsed/refractory CMML patients
# Experimental: Clinical studies with tipifarnib were performed in relapsed/refractory CMML patients (N=20) receiving tipifarnib as a single agent orally, twice a day (bid) for 7 days in alternating weeks (Days 1-7 and 15-21) in 28 day cycles. Eligible patients received tipifarnib administered at a starting dose of 1200 mg or 900 mg, orally with food, bid for 7 days in alternating weeks (Days 1-7 and 15-21) in 28 day cycles. Stepwise 300 mg dose reductions to control treatment-related, treatment-emergent toxicities were allowed.
# Inclusion Criteria for this clinical study include: (a) diagnosis of CMML as defined by the World Health Organization (WHO) criteria; (b) Eastern Cooperative Oncology Group (ECOG) performance status 0 or 1; (c) subject is willing and able to comply with scheduled visits, treatment plans, laboratory tests and other procedures (including bone marrow assessments); (d) at least 1 week since the last systemic therapy regimen prior to Cycle 1 Day 1, subjects on a stable dose of hydroxyurea for at least 2 weeks prior to Cycle 1 Day 1 may continue on hydroxyurea until Cycle 1 Day 7, and subjects must have recovered to NCI CTCAE v. […] Both females and male subjects with female partners of child-bearing potential must agree to use an adequate method of contraception for 2 weeks prior to screening, during, and at least 4 weeks after last dose of study medication. Female subjects must have a negative serum or urine pregnancy test within 72 hours prior to start of study medication. Not breast feeding at any time during the study; and (h) written and voluntary informed consent understood, signed and dated. […]
# [4] = higher pre-treatment CXCL12xCXCR3 product levels (20,000 or more) (FIG. 7)
# [5] = lower RHOE expression levels (FIG. 3A)
# [6] = lower pre-treatment CXCL12xCXCR3 product levels (less than 20,000) (FIG. 7)
smiles,measurement,setting,value
Cn1cncc1[C@@](N)(c1ccc(Cl)cc1)c1ccc2c(c1)c(-c1cccc(Cl)c1)cc(=O)n2C [tipifarnib],mPFS percentage,"[1]; CXCR3 expression levels in the first tertiale, N=58 (FIG. 10)",54 days
same,mPFS percentage,"[1]; CXCR3 expression levels in the second tertiale, N=58 (FIG. 10)",75 days
same,mPFS percentage,"[1]; CXCR3 expression levels in the third tertiale, N=58, p=0.009 (FIG. 10)",182 days
same,median progression free survival,[2]; CXCR3 expression levels in the first quartile (FIG. 9),about 10 days
same,median progression free survival,"[2]; CXCR3 expression levels in the fourth quartile, p=0.0004 (FIG. 9)",406 days
same,median progression free survival,[2]; CXCR3 expression levels in the second quartile (FIG. 9),about 70 days
same,median progression free survival,[2]; CXCR3 expression levels in the third quartile (FIG. 9),248 days
same,median progression free survival,[2]; RND3 expression levels greater than or equal to 144 (higher RHOE) (FIG. 3B),8.2 months
same,median progression free survival,[2]; RND3 expression levels less than 144 (lower RHOE) (FIG. 3B),2.2 months
same,PFS,[2]; high CXCL12xCXCR3 product subset,433 days
same,PD responses,[2]; higher RHOE expression levels (FIG. 3A),1 out of 14
same,CR responses,[2]; [4],8 out of 14 subjects
same,PD responses,[2]; [4],0 out of 14
same,SD/HI responses,[2]; [4],6 out of 14 subjects
same,PFS,[2]; low expressing CXCL12xCXCR3 product subset,64 days
same,CR responses,[2]; [5],0 out of 13 subjects
same,PD responses,[2]; [5],7 out of 13 subjects
same,CR responses,[2]; [6],1 out of 20 subjects
same,PD responses,[2]; [6],13 out of 20 subjects
same,SD/HI responses,[2]; [6],6 out of 20 subjects
same,"HR (PFS, high vs low CXCL12xCXCR3 product subset)","[2]; p=0.005, N=34",0.24
same,CR responses,"[2]; treatment naive elderly, frail AML patients with higher RHOE expression levels (FIG. 3A)",8 out of 14 subjects
same,median Time to Treatment Failure (TTF),"[3]; tertiale 1 (lowest PRICKLE2 expression), tipifarnib single agent (FIG. 11)",99 days
same,median Time to Treatment Failure (TTF),"[3]; tertiale 2 of PRICKLE2 expression, tipifarnib single agent (FIG. 11)",84 days
same,median Time to Treatment Failure (TTF),"[3]; tertiale 3 (highest PRICKLE2 expression), tipifarnib single agent, p=0.047 vs tertiale 1 (FIG. 11)",288 days
